# Assays:
# α2AAR = biological target: T1, α2AAR (Homo sapiens, UniProt P08913); assay: α2AAR binding assay ([3H]-RX 821002 radioligand); settings: [3H]-RX 821002 0.5 nM, HEK293 membranes; read-out: α2A affinity (Ki)
# T1 construct: host or cells: HEK293 (membranes)
# T1 sequence (P08913 1-465): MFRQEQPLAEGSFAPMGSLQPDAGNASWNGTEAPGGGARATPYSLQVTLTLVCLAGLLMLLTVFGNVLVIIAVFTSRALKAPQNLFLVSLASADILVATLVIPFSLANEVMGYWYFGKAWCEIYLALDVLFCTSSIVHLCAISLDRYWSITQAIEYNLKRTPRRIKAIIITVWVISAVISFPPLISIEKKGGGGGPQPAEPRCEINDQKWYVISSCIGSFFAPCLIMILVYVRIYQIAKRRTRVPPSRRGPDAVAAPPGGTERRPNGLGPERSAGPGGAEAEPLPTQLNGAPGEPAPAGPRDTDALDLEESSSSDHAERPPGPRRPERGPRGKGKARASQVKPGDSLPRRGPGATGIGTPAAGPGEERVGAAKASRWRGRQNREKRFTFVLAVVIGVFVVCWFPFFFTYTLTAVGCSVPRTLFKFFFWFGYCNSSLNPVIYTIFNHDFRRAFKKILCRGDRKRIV
# Method: The α2AR Binding Assay was conducted using a stable HEK293 cell line, specifically constructed by WuXi AppTec for targeting α2AAR. […] Both the assay and wash buffers consist of 50 mM Tris-HCl at a pH of 7.4 (Tris base, Sigma, T1503-1 KG).
# The procedure initiated with the preparation of test compounds and a reference compound, yohimbine (Sigma, Y3125), through an 8-point 4-fold serial dilution, transferring 1 μL of each to the assay plate. […] After scaling, the plates were agitated at room temperature for one hour. Subsequently, the Unifilter-96 GF/C filter plates were pre-soaked with 0.3% PEI (Sigma, P3143) for at least half an hour. The reaction mixtures were then filtered and washed four times with cold wash buffer using a Perkin Elmer Cell harvester. Post-filtration, the plates were dried at 50° C. for one hour. […] The top of the plates was then sealed with TopSeal-A sealing film. The trapped 3H was quantified using a Perkin Elmer MicroBeta2 Reader. […] Finally, the data were analyzed with Prism 5.0 software, employing the “log (inhibitor) vs. response-Variable slope” model for data fitting. This comprehensive process ensured precise assessment of the binding affinity of compounds to the α2AAR.
# [1] = biological target: T2, α2AAR (α2A-adrenergic receptor) (Homo sapiens, UniProt P08913); assay: α2AAR FLIPR assay (agonist activity); type: cell-based; settings: FLIPR, α2AAR cell line hosted in HEK293 cells; read-out: α2A agonist activity (EC50)
# T2 construct: expressed in transfected cells; host or cells: HEK293
# T2 sequence (P08913 1-465): T1 sequence (P08913 1-465)
# Method: This experimental protocol involved cell seeding and a FLIPR assay using the α2AAR (α2A-adrenergic receptor) cell line hosted in HEK293 cells. […] On Day 1, the cell seeding process started with the removal of the culture medium, followed by rinsing the cells with DPBS (21-031-CVC, Corning). […] The cells were detached, resuspended in growth media, and centrifuged at room temperature at 1000 rpm for 5 minutes. After discarding the supernatant, the cell pellet was resuspended in growth media to a concentration of 10× 10^5 cells per mL. This suspension was added to 384-well plates (19-Jul-38, Greiner) at 20 μL per well and incubated overnight at 37° C. in 5% CO2.
# A 250 mM Probenecid solution was prepared in this buffer. The Fluo-4 Direct™ Loading Buffer was made by dissolving Fluo-4 Direct™ crystals (F10471, Invitrogen) in the FLIPR Assay Buffer and adding Probenecid. The buffer was then vortexed and allowed to stand for over 5 minutes, shielded from light. For the FLIPR procedure, testing compounds for agonist activite were serially diluted and transferred to a 384-well compound plate (25-Jan-39, Greiner). The cell plate was then treated with 2× Fluo-4 Direct™ loading buffer and incubated for 50 minutes at 37° C. in a 5% CO2 atmosphere, followed by 10 minutes at room temperature. Subsequently, the FLIPR assay buffer was added to the compound plate, which is then centrifuged.
# The cell plate was analyzed in the FLIPR Tetra+ System for fluorescence signals. For the agonist test, reference compounds were added to the cell plates, and fluorescence was measured. The “Max-Min” calculation began from Read 1 to the maximum allowed. The data were analyzed using Prism software to calculate activation percentage for agonists and inhibition percentage for antagonists. The results were then fitted using specific models to determine EC50 for agonists.
# The experimental protocol utilized various reagents and apparatus, including Penicillin/Streptomycin (100×) (SV30010, Hyclone), Poly-L-lysine hydrobromide (P1399, Sigma), and different types of 384-well plates such as the 384-Well PP 2.0 Microplate (PP-0200, LABCYTE) and 384 well Low Dead Volume Microplate (LP-0200, LABCYTE). The use of specific reference compounds like UK14304 was also integral to the assay.
Ki (α2AAR) [nM],EC50 [1] [nM],SMILES
< 10,10 to 50,"Cc1cccc(C(c2cccc(NS(C)(=O)=O)c2)c2c[nH]cn2)c1C (single isomer, unassigned) [44-B]"
< 10,< 10,"Cc1cccc(C(c2cccc(C(=O)NCC3CCOCC3)c2)c2c[nH]cn2)c1C (single isomer, unassigned) [98-B]"
< 10,10 to 50,"Cc1cccc(C(Cc2cccc(NS(=O)(=O)CC3CCOCC3)c2)c2c[nH]cn2)c1C (single isomer, unassigned) [112-B]"
50 to 250,10 to 50,"Cc1cccc(C(Cc2ccc(C(=O)O)cc2)c2c[nH]cn2)c1C (single isomer, unassigned) [175-B]"
10 to 50,10 to 50,Cc1cccc(C(c2cccc(OCCNS(C)(=O)=O)c2)c2c[nH]cn2)c1C (centres unmarked) [compound 22]
< 10,10 to 50,Cc1cccc(C(c2c[nH]cn2)c2cccc(C(N)=O)c2F)c1C (centres unmarked) [compound 27]
50 to 250,50 to 250,CC(=O)Nc1cccc(C(c2c[nH]cn2)c2cccc(C)c2C)c1F (centres unmarked) [compound 50]
10 to 50,50 to 250,Cc1cccc(C(c2c[nH]cn2)c2cccc(NS(C)(=O)=O)c2F)c1C (centres unmarked) [compound 51]
10 to 50,10 to 50,CONC(=O)c1cccc(CC(c2c[nH]cn2)c2cccc(C)c2C)c1 (centres unmarked) [compound 61]
10 to 50,10 to 50,CSCCC(=O)Nc1cccc(C(c2c[nH]cn2)c2cccc(C)c2C)c1 (centres unmarked) [compound 63]
10 to 50,10 to 50,Cc1cccc(C(c2cccc(NC(=O)CCN3CCOCC3)c2)c2c[nH]cn2)c1C (centres unmarked) [compound 70]
< 10,50 to 250,Cc1cccc(C(Cc2cccc(NS(C)(=O)=O)c2)c2c[nH]cn2)c1C (centres unmarked) [compound 76]
10 to 50,50 to 250,Cc1cccc(C(c2cccc(C(=O)CCC#N)c2)c2c[nH]cn2)c1C (centres unmarked) [compound 85]
10 to 50,50 to 250,Cc1cccc(C(c2cccc(NC(=O)CCCN3CCOCC3)c2)c2c[nH]cn2)c1C (centres unmarked) [compound 88]
10 to 50,50 to 250,Cc1cccc(C(c2cccc(NC(=O)CCN3CCCC3)c2)c2c[nH]cn2)c1C (centres unmarked) [compound 89]
50 to 250,50 to 250,Cc1cccc(C(c2cccc(NC(=O)CCN3CCNCC3)c2)c2c[nH]cn2)c1C (centres unmarked) [compound 90]
50 to 250,50 to 250,Cc1cccc(C(c2cccc(NS(=O)(=O)CCN3CCOCC3)c2)c2c[nH]cn2)c1C (centres unmarked) [compound 94]
< 10,10 to 50,Cc1cccc(C(c2cccc(NC(=O)CC3CCCOC3)c2)c2c[nH]cn2)c1C (centres unmarked) [compound 104]
10 to 50,< 10,Cc1cccc(C(c2cccc(NC(=O)CC3CCS(=O)(=O)CC3)c2)c2c[nH]cn2)c1C (centres unmarked) [compound 117]
< 10,10 to 50,Cc1cccc(C(c2cccc(NS(=O)(=O)CC3CCOCC3)c2)c2c[nH]cn2)c1C (centres unmarked) [compound 119]
< 10,< 10,Cc1cccc(C(c2cccc(NC(=O)CC3=CCOCC3)c2)c2c[nH]cn2)c1C (centres unmarked) [compound 120]
,50 to 250,COCCOCCOCCOCCOCCc1ccc2ccccc2c1Nc1ccncc1 [compound 602]

# Further lines, the compound ahead of its results:
SMILES,Ki (α2AAR) [nM],EC50 [1] [nM]
Cc1cccc(C(c2cccc(C(=O)NC3CCOCC3)c2)c2c[nH]cn2)c1C (racemic) [compound 121],10 to 50,< 10
Cc1cccc(C(Cc2ccc(NS(C)(=O)=O)cc2)c2c[nH]cn2)c1C (racemic) [compound 136],< 10,< 10
Cc1cccc(C(Cc2ccc(C(N)=O)c(F)c2)c2c[nH]cn2)c1C (racemic) [compound 156],< 10,< 10
"Cc1cccc(C(c2cccc(NC(=O)CC#N)c2)c2c[nH]cn2)c1C (single isomer, unassigned) [10-B]",10 to 50,10 to 50
"CNC(=O)NCCOCCOCC(c1c[nH]cn1)c1cccc(C)c1C (single isomer, unassigned) [17-B]",10 to 50,10 to 50
"Cc1cccc(C(c2cccc(NC(=O)CCC#N)c2)c2c[nH]cn2)c1C (single isomer, unassigned) [43-B]",10 to 50,10 to 50
"Cc1cccc(C(Cc2ccc(C(C)C(=O)O)cc2)c2c[nH]cn2)c1C (single isomer, unassigned) [174-B]",10 to 50,10 to 50
"Cc1cccc(C(Cc2ccc(C(C)C(=O)O)cc2)c2c[nH]cn2)c1C (single isomer, unassigned) [174-D]",10 to 50,10 to 50
CONC(=O)c1cccc(C(c2c[nH]cn2)c2cccc(C)c2C)c1 (centres unmarked) [compound 1],50 to 250,50 to 250
Cc1cccc(C(COCCOCCNC(=O)Nc2ccncn2)c2c[nH]cn2)c1C (centres unmarked) [compound 20],50 to 250,10 to 50
Cc1cccc(C(COCCOCCOCCNS(C)(=O)=O)c2c[nH]cn2)c1C (centres unmarked) [compound 26],50 to 250,10 to 50
CNS(=O)(=O)c1cccc(C(c2c[nH]cn2)c2cccc(C)c2C)c1 (centres unmarked) [compound 28],10 to 50,10 to 50
Cc1cccc(C(c2cccc(NS(C)(=O)=O)c2)c2c[nH]cn2)c1C (centres unmarked) [compound 29],< 10,10 to 50
CC(=O)Nc1cccc(C(c2c[nH]cn2)c2cccc(C)c2C)c1 (centres unmarked) [compound 30],50 to 250,50 to 250
Cc1cccc(C(c2ccnc(C(N)=O)c2)c2c[nH]cn2)c1C (centres unmarked) [compound 31],50 to 250,10 to 50
Cc1cccc(C(c2cccc(NCCC#N)c2)c2c[nH]cn2)c1C (centres unmarked) [compound 32],50 to 250,50 to 250
Cc1cccc(C(c2cccc(NC(=O)CCC#N)c2)c2c[nH]cn2)c1C (centres unmarked) [compound 43],10 to 50,10 to 50
CONC(=O)c1cccc(C(c2c[nH]cn2)c2cccc(C)c2C)c1F (centres unmarked) [compound 54],10 to 50,10 to 50
Cc1cccc(C(c2cccc(NC(=O)CC3CCNC3)c2)c2c[nH]cn2)c1C (centres unmarked) [compound 79],10 to 50,50 to 250
Cc1cccc(C(c2cccc(NS(=O)(=O)CC3CCOC3)c2)c2c[nH]cn2)c1C (centres unmarked) [compound 86],< 10,10 to 50
Cc1cccc(C(c2cccc(NC(=O)CC3CCCCO3)c2)c2c[nH]cn2)c1C (centres unmarked) [compound 96],< 10,10 to 50
CC(=O)N1CCC(CC(=O)Nc2cccc(C(c3c[nH]cn3)c3cccc(C)c3C)c2)CC1 (centres unmarked) [compound 102],10 to 50,10 to 50
Cc1cccc(C(c2cccc(NC(=O)CN3CCC(O)CC3)c2)c2c[nH]cn2)c1C (centres unmarked) [compound 123],< 10,10 to 50
Cc1cccc(C(c2c[nH]cn2)c2cccc(C(=O)NCC3CCOCC3)c2F)c1C (centres unmarked) [compound 124],< 10,10 to 50
CONC(=O)c1ccc2ccccc2c1Nc1ccncc1 [compound 601],,50 to 250

# — patent US20240374573A1, “IMIDAZOLE CONTAINING COMPOUNDS, DERIVATIVES THEREFORE, AND USES THEREOF” (AglaeaPharma Inc., priority 2023, published 2024)
